Reference: article PMC10608451, “Affinity Purification and Molecular Characterization of Angiotensin-Converting Enzyme (ACE)-Inhibitory Peptides from Takifugu flavidus” (Marine Drugs, 2023)
Where two headings read alike, the source gives them in different places. Where a SMILES comes first, the peptide text is derived from it. Where no end group is shown, it is not given here.

Columns and labels:
ACE [1] = target: T1, ACE (Homo sapiens, UniProt P12821); settings: read-out: IC50, ACE inhibition, cited from earlier work
ACE [2] = target: T1, ACE; experiment: ACE-inhibitory activity assay of synthetic peptides (HHL substrate, hippuric acid by RP-HPLC); assay type: biochemical; settings: for inhibition at 1000 µg/mL: 0.75 h, peptide 1 mg/mL; for IC50: Table 2, top 8 peptides
Method: The peptides were prepared by the fmoc solid-phase method (purity ≥ 98% by HPLC) at Genscript Biotech Corporation (Nanjing, China). ACE-inhibitory activity of the synthesized peptides was evaluated according to the method of Ma. et al., with some modifications. In brief, 50 µL of sample was added into 150 µL of 5 mmol·L^−1 hippuryl-l-histidyl-l-leucine (HHL) and incubated for 10 min at 37 °C. Then, the enzymatic reaction was initiated by addition of 50 µL of 50 mU/mL ACE solution and kept at a constant temperature of 37 °C for 45 min. The reaction was then terminated by adding 250 µL of 1 mol·L^−1 HCl. RP-HPLC (Waters, Milford, MA, USA) was used to measure hippuric acid (HA) formation at 220 nm. […] The IC50 value represents the concentration of the peptide that inhibits 50% of ACE activity under the assay conditions.

ACE [3] = target: T1, ACE; experiment: Surface plasmon resonance (SPR) assay; assay type: binding
Method: The affinity interaction between TLRFALHGME and ACE was verified by SPR experiments. In brief, 5 ug ACE was fixed on a COOH sensor chip by capture-coupling. Afterwards, 50–800 μmol·L^−1 of TLRFALHGME were injected sequentially into the chamber in PBS running buffer. The SPR assay was performed at 25 °C on an OpenSPRTM (Nicoya Lifesciences, Waterloo, QC, Canada). The conditions for the analysis were set at a flow rate of 20 μL·min^−1, the binding time was 240 s, and the disassociation time was 480 s. Chips were regenerated using a regeneration buffer (0.25% SDS). A one-to-one diffusion-corrected model was fitted to the wavelength shifts corresponding to the series of TLRFALHGME concentrations. The kinetic constant analysis was performed using TraceDrawer 1.9.1 software (Ridgeview Instruments AB, Uppsala, Sweden) to determine the association constant (Ka) and dissociation constant (Kd). The affinity constant (KD) was calculated as the ratio kd/ka.

hypertensive rats = tested on: hypertensive rats; set-up: method as in PMID 34783331; settings: cited from earlier work
[4] = attributed to multiple hydrophobic amino acids
[5] = target: T2, angiotensin-I-converting enzyme (UniProt P12822 34-1260); experiment: cell-based or functional assay
T2 sequence (looked up): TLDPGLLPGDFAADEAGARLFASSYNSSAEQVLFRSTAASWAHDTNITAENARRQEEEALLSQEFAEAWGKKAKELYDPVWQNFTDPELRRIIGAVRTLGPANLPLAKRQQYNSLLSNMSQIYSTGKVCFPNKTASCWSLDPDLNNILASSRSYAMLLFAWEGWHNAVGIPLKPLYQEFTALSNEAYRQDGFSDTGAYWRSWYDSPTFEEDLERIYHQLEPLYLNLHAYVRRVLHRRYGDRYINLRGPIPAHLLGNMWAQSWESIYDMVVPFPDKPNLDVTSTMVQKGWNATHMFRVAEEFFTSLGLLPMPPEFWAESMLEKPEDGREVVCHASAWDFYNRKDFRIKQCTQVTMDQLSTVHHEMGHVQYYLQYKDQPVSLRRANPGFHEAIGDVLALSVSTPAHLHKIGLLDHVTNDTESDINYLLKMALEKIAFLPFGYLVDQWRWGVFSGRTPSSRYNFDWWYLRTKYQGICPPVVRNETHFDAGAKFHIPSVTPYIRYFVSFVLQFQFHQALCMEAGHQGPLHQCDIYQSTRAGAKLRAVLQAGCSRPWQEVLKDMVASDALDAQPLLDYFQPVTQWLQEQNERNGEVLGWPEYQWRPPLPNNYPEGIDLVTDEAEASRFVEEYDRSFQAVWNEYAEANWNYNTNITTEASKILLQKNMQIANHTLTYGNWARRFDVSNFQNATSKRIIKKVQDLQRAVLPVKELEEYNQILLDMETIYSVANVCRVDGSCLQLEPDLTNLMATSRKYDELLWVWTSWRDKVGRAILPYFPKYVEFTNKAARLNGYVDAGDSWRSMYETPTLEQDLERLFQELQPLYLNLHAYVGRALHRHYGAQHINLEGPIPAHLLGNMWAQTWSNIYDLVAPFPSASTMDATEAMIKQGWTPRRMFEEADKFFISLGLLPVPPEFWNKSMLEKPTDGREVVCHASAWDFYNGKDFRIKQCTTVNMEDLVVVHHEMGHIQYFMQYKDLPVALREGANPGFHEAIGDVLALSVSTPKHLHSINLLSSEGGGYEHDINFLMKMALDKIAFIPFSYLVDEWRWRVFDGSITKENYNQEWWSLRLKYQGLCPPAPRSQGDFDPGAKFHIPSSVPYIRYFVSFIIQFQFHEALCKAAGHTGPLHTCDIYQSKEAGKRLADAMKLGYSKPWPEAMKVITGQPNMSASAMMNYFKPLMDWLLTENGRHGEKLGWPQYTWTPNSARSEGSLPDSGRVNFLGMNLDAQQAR

[6] = target: T2, angiotensin-I-converting enzyme
[7] = from Volutharpa ampullacea perryi hydrolysate, Zn-SBA-15-immobilized ACE and HPLC

T1 sequence (P12821 30-1306, species assumed): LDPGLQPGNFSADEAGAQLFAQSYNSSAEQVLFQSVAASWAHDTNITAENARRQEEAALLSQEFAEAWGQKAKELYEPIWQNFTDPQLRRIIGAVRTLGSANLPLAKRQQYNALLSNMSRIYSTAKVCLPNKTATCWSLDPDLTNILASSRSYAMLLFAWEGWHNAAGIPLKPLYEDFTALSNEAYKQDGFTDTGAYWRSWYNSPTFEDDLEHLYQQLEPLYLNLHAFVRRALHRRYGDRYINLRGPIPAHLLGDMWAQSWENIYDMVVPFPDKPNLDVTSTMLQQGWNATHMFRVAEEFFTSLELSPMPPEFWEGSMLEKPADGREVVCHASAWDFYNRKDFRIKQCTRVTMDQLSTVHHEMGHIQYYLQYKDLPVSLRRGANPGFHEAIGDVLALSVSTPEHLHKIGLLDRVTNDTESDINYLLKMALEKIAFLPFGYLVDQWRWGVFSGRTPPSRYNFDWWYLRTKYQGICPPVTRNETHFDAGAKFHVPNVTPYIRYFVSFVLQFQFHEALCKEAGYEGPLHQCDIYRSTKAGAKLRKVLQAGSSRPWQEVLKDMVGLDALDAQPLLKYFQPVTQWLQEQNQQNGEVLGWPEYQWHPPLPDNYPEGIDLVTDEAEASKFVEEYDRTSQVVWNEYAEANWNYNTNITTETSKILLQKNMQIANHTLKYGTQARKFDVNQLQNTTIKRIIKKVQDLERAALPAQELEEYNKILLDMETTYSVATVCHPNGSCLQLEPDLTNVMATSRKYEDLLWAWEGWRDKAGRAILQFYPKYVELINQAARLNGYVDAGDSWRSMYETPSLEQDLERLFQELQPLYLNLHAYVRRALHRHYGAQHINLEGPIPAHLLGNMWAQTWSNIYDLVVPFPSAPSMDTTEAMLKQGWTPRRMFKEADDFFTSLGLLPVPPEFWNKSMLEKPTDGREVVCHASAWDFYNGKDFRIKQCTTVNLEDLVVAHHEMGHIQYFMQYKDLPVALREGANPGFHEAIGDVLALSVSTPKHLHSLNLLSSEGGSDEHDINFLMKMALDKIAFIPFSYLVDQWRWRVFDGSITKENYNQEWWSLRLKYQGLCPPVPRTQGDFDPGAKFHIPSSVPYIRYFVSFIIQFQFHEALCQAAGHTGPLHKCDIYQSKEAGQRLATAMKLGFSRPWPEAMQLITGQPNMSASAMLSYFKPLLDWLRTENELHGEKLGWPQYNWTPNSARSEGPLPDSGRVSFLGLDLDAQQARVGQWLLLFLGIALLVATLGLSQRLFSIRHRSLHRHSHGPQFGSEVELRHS

VYP
IC50 (ACE [1]; from lizard fish protein hydrolysates, MA-IML): 108 µM

VGPAGRPG
IC50 (ACE [1]; [7]): 4660 µM

IVTNWDDMEL
IC50 (ACE [1]; [7]): 2080 µM

TFTGA [TFTGA]
inhibition at 1000 µg/mL (ACE [2]): > 50%
IC50 (ACE [2]): 694 µM

TLRFALHGME [TLRFALHGME]
inhibition at 1000 µg/mL (ACE [2]): > 50%
IC50 (ACE [2]): 93.5 µM
koff (ACE [3]; 25 °C, 50–800 µmol·L^−1 peptide, read-out: Kd (dissociation rate constant)): 0.002 s⁻¹
Kd (ACE [3]; KD, printed in Figure 7): 80.8 µM
Kd (ACE [3]; abstract, read-out: Kd (binding affinity to ACE)): 80.9 µM

CC(C)C[C@H](NC(=O)[C@H](C)NC(=O)[C@H](C)NC(=O)[C@@H](N)CO)C(=O)O [SAAL] (H-SAAL-OH; N-terminus and C-terminus assumed)
inhibition at 1000 µg/mL (ACE [2]): > 50%
IC50 (ACE [2]): 883 µM

WGAP
Reduction of diastolic blood pressure (hypertensive rats): ≤ 28.56 ± 2.71 mmHg
Reduction of systolic blood pressure (hypertensive rats): up to 42.66 ± 2.87 mmHg

CC(C)C[C@H](NC(=O)[C@H](CC(C)C)NC(=O)[C@@H](NC(=O)[C@@H](N)[C@@H](C)O)C(C)C)C(=O)O [TVLL] (H-TVLL-OH; N-terminus and C-terminus assumed)
inhibition at 1000 µg/mL (ACE [2]): > 50%
IC50 (ACE [2]): 582 µM

RSTGALAL [RSTGALAL]
inhibition at 1000 µg/mL (ACE [2]): > 50%
IC50 (ACE [2]): 5840 µM

CC(C)C[C@H](NC(=O)[C@@H](N)C(C)C)C(=O)NCC(=O)N[C@@H](C)C(=O)O [VLGA] (H-VLGA-OH; N-terminus and C-terminus assumed)
inhibition at 1000 µg/mL (ACE [2]): > 50%
IC50 (ACE [2]): 1370 µM

TLFGL [TLFGL]
inhibition at 1000 µg/mL (ACE [2]): > 50%
IC50 (ACE [2]): 57.5 µM
Solubility [4]: low solubility

CC(C)C[C@H](NC(=O)[C@H](CC(C)C)NC(=O)[C@@H](NC(=O)[C@@H](N)Cc1ccc(O)cc1)C(C)C)C(=O)O [YVLL] (H-YVLL-OH; N-terminus and C-terminus assumed)
inhibition at 1000 µg/mL (ACE [2]): > 50%
IC50 (ACE [2]): 154 µM

B1: TFTGA (peptide)
peptide: TFTGA
ACE-inhibitory activity (hippuric acid formed from HHL, RP-HPLC), IC50 [5]: 694 µM

B2: TVLL (peptide)
peptide: TVLL
ACE-inhibitory activity (hippuric acid formed from HHL, RP-HPLC), IC50 [6]: 582 µM

B3: RSTGALAL (peptide)
peptide: RSTGALAL
ACE-inhibitory activity (hippuric acid formed from HHL, RP-HPLC), IC50 [5]: 5840 µM

B4: SAAL (peptide)
peptide: SAAL
ACE-inhibitory activity (hippuric acid formed from HHL, RP-HPLC), IC50 [6]: 883 µM

B5: YVLL (peptide)
peptide: YVLL
ACE-inhibitory activity (hippuric acid formed from HHL, RP-HPLC), IC50 [6]: 154 µM

B6: TLRFALHGME (peptide)
peptide: TLRFALHGME
notes: source: Takifugu flavidus skin hydrolysate (alcalase, <1 kDa fraction); also synthetic peptide (Fmoc solid phase, Genscript)
ACE-inhibitory activity (hippuric acid formed from HHL, RP-HPLC), IC50 [5]: 93.5 µM

B7: VLGA (peptide)
peptide: VLGA
ACE-inhibitory activity (hippuric acid formed from HHL, RP-HPLC), IC50 [6]: 1370 µM

B8: TLFGL (peptide)
peptide: TLFGL
ACE-inhibitory activity (hippuric acid formed from HHL, RP-HPLC), IC50 [5]: 57.5 µM
